The source of these data is patent US20260116868A1 (Arcus Biosciences, Inc., priority 2023, published 2026).

One assay deals with Jurkat cells. Briefly: IL-2 secretion assay in Jurkat cells activated with CD3/CD28 T Cell Activator. The settings on record: Homo sapiens; Jurkat cells, CD3/CD28 T Cell Activator, 24 h, IL-2 AlphaLISA; read-out: IL-2 Secretion (EC50). The format is cell-based. The method in brief: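 Jurkat cells in Opti-MEM were preincubated 1 h at 37° C with compound (final 10 μM to 300 pM, 16-point 1:2 dilution), then activated with human CD3/CD28 T Cell Activator for 24 h at 37° C. Supernatant IL-2 measured by AlphaLISA; EC50 from 4-parameter logistic fit.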
(In general: Bead proximity is the source of the signal in Alpha formats.)

Another assay deals with T1, Cbl-b (Homo sapiens, UniProt Q13191).
T1 construct: biotin (biotinylated protein)
T1 sequence (Q13191 whole entry, species assumed): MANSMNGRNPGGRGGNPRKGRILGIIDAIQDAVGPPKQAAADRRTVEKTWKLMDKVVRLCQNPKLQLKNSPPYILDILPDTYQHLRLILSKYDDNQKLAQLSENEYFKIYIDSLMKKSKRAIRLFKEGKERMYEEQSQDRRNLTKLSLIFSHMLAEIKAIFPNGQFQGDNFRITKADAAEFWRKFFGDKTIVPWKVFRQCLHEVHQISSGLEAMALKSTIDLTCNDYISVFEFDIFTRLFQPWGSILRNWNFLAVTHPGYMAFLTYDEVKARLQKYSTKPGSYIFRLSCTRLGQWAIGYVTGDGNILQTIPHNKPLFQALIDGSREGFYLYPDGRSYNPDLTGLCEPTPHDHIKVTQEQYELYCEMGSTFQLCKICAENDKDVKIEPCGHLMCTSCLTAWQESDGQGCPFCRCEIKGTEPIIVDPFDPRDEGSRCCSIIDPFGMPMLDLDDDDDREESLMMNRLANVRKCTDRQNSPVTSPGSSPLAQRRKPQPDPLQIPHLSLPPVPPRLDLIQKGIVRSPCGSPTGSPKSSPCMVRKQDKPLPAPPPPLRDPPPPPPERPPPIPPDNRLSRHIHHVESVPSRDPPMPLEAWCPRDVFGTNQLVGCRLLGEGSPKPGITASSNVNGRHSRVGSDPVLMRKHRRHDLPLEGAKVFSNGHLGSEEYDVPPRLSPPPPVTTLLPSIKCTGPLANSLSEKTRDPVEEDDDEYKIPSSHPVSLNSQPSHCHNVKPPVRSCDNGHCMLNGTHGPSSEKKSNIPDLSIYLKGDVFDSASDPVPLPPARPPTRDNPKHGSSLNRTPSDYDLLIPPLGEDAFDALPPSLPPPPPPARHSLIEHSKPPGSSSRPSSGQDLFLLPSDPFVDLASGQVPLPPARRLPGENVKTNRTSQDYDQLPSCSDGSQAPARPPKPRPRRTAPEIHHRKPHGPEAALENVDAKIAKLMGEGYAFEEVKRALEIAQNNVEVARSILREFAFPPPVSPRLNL
In words: Cbl-b probe displacement HTRF binding assay. As to conditions: 0.4 nM Cbl-b, 150 nM BODIPY probe. The method in brief: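 Binding IC50 from four-parameter fit of HTRF signal loss, normalised to DMSO (0%) and no-protein (100%) wells. Biotinylated Cbl-b 0.4 nM was preincubated 60 min with compound (20-point 1:2 dilution) before 15 min with 150 nM BODIPY probe; Tb-streptavidin detection.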
In general terms: TR-FRET usually uses a lanthanide donor and a delayed reading to cut background.

A word on the EC50: it is the midpoint of the concentration-response curve. A word on the IC50: it is the point on the concentration scale where inhibition reaches its midpoint. High values mean lower potency, low ones higher potency.

Each structure is given as a SMILES string.

As for `C[C@H]1CCCN(Cc2cc(C(=O)Nc3cc(-c4ccc(F)cc4-c4nncn4C)cc(C4CC4)n3)c(=O)n(CC3CCC3)c2)C1` [Example 62, 1-(cyclobutylmethyl)-N-[6-cyclopropyl-4-[4-fluoro-2-(4-methyl-1,2,4-triazol-3-yl)phenyl]pyridin-2-yl]-5-[[(3S)-3-methylpiperidin-1-yl]methyl]-2-oxopyridine-3-carboxamide], in the assay with Jurkat cells, the EC50 was less than 100 nM. At Cbl-b, the IC50 was less than 100 nM.
For `COCCNCc1cc(C(=O)Nc2cc(-c3ccc(C#N)cc3-c3nc(C#N)cn3C)cc(C3CC3)n2)c(=O)n(CC2CC2)c1` [Example 63, N-{4-[4-cyano-2-(4-cyano-1-methyl-2-imidazolyl)phenyl]-6-cyclopropyl-2-pyridyl}-1-(cyclopropylmethyl)-5-[(2-methoxyethylamino)methyl]-2-oxo-1,2-dihydronicotinamide], in the assay with Jurkat cells, the EC50 was in the range of 100 to 1000 nM. Besides, the IC50 at Cbl-b was less than 100 nM.
In the same order, the values of `COCCNCc1cc(C(=O)Nc2cc(-c3ccc(C#N)cc3-c3ncoc3C)cc(C3CC3)n2)c(=O)n(CC2CC2)c1` [Example 64, N-{4-[4-cyano-2-(5-methyl-1,3-oxazol-4-yl)phenyl]-6-cyclopropyl-2-pyridyl}-1-(cyclopropylmethyl)-5-[(2-methoxyethylamino)methyl]-2-oxo-1,2-dihydronicotinamide] are 100 to 1000 nM and less than 100 nM.
In the same order, the values of `C[C@H]1CCCN(Cc2cc(C(=O)Nc3cc(-c4ccc(F)cc4C(=O)N4CC(F)C4)cc(C4CC4)n3)c(=O)n(C3CC3)c2)C1` [Example 65, N-(6-cyclopropyl-4-{4-fluoro-2-[(3-fluoro-1-azetidinyl)carbonyl]phenyl}-2-pyridyl)-5-{[(S)-3-methyl-1-piperidyl]methyl}-1-cyclopropyl-2-oxo-1,2-dihydronicotinamide] are 100 to 1000 nM and less than 100 nM.
In the same order, the values of `C[C@H]1CCCN(Cc2cc(C(=O)Nc3cc(C#N)cc(-c4ccc(F)cc4C(=O)N4CC(F)C4)c3)c(=O)n(C3CC3)c2)C1` [Example 66, N-{5-cyano-4′-fluoro-2′-[(3-fluoro-1-azetidinyl)carbonyl]-3-biphenylyl}-5-{[(S)-3-methyl-1-piperidyl]methyl}-1-cyclopropyl-2-oxo-1,2-dihydronicotinamide] are 1000 to 5000 nM and 100 to 1000 nM.
As to `COCCNCc1cc(C(=O)Nc2cc(-c3ccc(F)cc3C(=O)N3CC(F)(F)C3)cc(C3CC3)c2)c(=O)n(C2CC2)c1` [Example 69, N-{5-cyclopropyl-2′-[(3,3-difluoro-1-azetidinyl)carbonyl]-4′-fluoro-3-biphenylyl}-1-cyclopropyl-5-[(2-methoxyethylamino)methyl]-2-oxo-1,2-dihydronicotinamide], the EC50 in the assay on Jurkat cells lay in the range of 100 to 1000 nM. The same molecule displayed a concentration for half-maximal inhibition (IC50) on Cbl-b of less than 100 nM.
As to `COCCNCc1cc(C(=O)Nc2cc(-c3ccc(F)cc3-n3nccc3C)cc(C3CC3)n2)c(=O)n(C2CC2)c1` [Example 70, 1-Cyclopropyl-N-[6-cyclopropyl-4-[4-fluoro-2-(5-methylpyrazol-1-yl)phenyl]pyridin-2-yl]-5-[(2-methoxyethylamino)methyl]-2-oxopyridine-3-carboxamide], in the assay with Jurkat cells, the EC50 is 100 to 1000 nM. The molecule also showed an IC50 at Cbl-b of less than 100 nM.
Turning to `COCCNCc1cc(C(=O)Nc2cc(-c3ccc(F)cc3-n3nncc3C)cc(C3CC3)n2)c(=O)n(C2CC2)c1` [Example 71, N-{6-cyclopropyl-4-[4-fluoro-2-(5-methyl-1H-1,2,3-triazol-1-yl)phenyl]-2-pyridyl}-1-cyclopropyl-5-[(2-methoxyethylamino)methyl]-2-oxo-1,2-dihydronicotinamide], the concentration giving a half-maximal response (EC50) with Jurkat cells is less than 100 nM. Further, the IC50 on Cbl-b is less than 100 nM.
As to `COCCNCc1cc(C(=O)Nc2cc(-c3ccc(F)cc3-n3nncc3CF)cc(C3CC3)n2)c(=O)n(C2CC2)c1` [Example 72, 1-Cyclopropyl-N-[6-cyclopropyl-4-[4-fluoro-2-[5-(fluoromethyl)triazol-1-yl]phenyl]pyridin-2-yl]-5-[(2-methoxyethylamino)methyl]-2-oxopyridine-3-carboxamide], in the assay on Jurkat cells, the EC50 was in the range of 100 to 1000 nM. Moreover, the half-maximal inhibitory concentration (IC50) at Cbl-b was less than 100 nM.
